The subject of data set [1] is bovine aortic endothelial cells. Kind of data set: Apoptotic cell death by bisbenzamide trihydrochloride/Hoechst-33258 staining. It is filed as cell-based. The following applies: 5 mM.
The next data set has as its system MDA-MB 231 cells. Briefly: Protein tyrosine phosphorylation (anti-PY immunoprecipitation/immunoblot). The following applies: 10 mM, 15 min to 2 h. It is filed as cell-based, human. Here is the method: FIG. 2. Effects of tempol and tempo on protein tyrosine phosphorylation. Subconfluent cultures were grown in serum-free medium overnight, followed by treatment with tempol (10 mM) or tempo (10 mM) for indicated times and lysis. Normalized protein contents (1 mg) were immunoprecipitated with agarose-conjugated anti-PY MAb, and then immunoblotted with anti-PY MAb. Data shown is representative of two independent experiments. UT, untreated cells grown overnight in serum-free medium.
Cell Culture, Treatments with Tempol and Tempo, and Preparation of Cell Lysates—MDA-MB 231 human breast cancer cells were grown to near confluence in 75 cm^2 tissue culture flasks in Improved Minimum Essential Medium (IMEM) (Cellgro) containing 10% fetal bovine serum (FBS) and 2 mM L-glutamine in a humidified atmosphere of 5% CO2: 95% air at 37° C. Cells were trypsinized and plated into a 150 mm tissue culture dish (two dishes per flask) overnight in medium containing 10% FBS followed by two washes with phosphate buffer saline (PBS). […]
Immunoprecipitation and Immunoblotting—Whole cell lysate (1 mg) was immunoprecipitated with the appropriate agarose-conjugated antibody (1 ug/ml of lysis buffer) overnight at 4° C. with constant agitation. […] The bands of interest were quantified by ImageQuant software version 3.3 (Molecular Dynamics Personal Densitometer, Sunnyvale, Calif.). […]
A general note: Immunoblotting shows a protein as a band on a membrane.

For the next data set, the system named is PC-3 cells. Briefly: Apoptosis assay (annexin V-FITC/propidium iodide flow cytometry), serum-free. Conditions: 10 mM, 2 h, PC-3. Here is the method:
FIGS. (7A1–7A3), (7B1–7B2), (7C1–7C3), (7D1–7D2), (7E1–7E3), (7F1–7F2). […] Cells were grown in serum-free medium overnight in T-25 flasks and treated with tempol (10 mM) or tempo (10 mM) for various times, trypsinized, and then resuspended in 200 ul 1× binding buffer as described in experimental procedures. The cell suspension was double-stained with annexin V-FITC and propidium iodide and analyzed by flow cytometry. Background signal was determined by comparison with double-stained, single-stained, or unstained control cells. (7A1–7A3), (7C1–7C3), and (7E1–7E3) are cytograms showing a relative distribution of viable (V), apoptotic (A), and necrotic (N) cells at 2 h following tempol or tempo treatment of MDA-MB 231 cells (A), PCI-04A cells (C), and PC-3 cells (E). (7B1–7B3), (7D1–7D2), and (7F1–7F2) are time course analyses of MDA-MB 231 cells (B), PCT-04A cells (D), and PC-3 cells (F). 100,000 cells were analyzed at each time point in triplicate (B) or quadruplicate (D and F). Solid bars, 1% ethanol, striped bars, 10 mM tempol, empty bars, 10 mM tempo. […] Data shown are representative from three to four independent experiments. (7B1–7B2), Time course analysis of MDA-MB 231 cells undergoing apoptosis (annexin V-FITC staining) (7B1), or necrosis (propidium iodide staining) (7B2). Values shown are mean±s.d. of triplicate determinations per time point in each treatment category, and representative of three to four independent experiments. […] (7D1–7D2), Time course analysis of PCI-04A cells undergoing apoptosis (annexin V-FITC staining) (7D1), or necrosis (propidium iodide staining) (7D2). Values shown are mean±s.d. of quadruplicate determinations per time point in each treatment category. […] (7F1–7F2), Time course analysis of PC-3 cells undergoing apoptosis (annexin V-FITC staining) (7F1), or necrosis (propidium iodide staining) (7F2). Values shown are mean±s.d. of quadruplicate determinations per time point in each treatment category. Control/C, cells treated with 1% ethanol for 2 h.
Apoptosis Assay—ApoAlert Annexin V apoptosis detection system (Clontech Lab Inc., Palo Alto, Calif.) was used to measure the relative distribution of apoptotic and necrotic cells. Briefly, cells were seeded at a density of 1×10^6 cells per 25 cm^2 tissue culture flask in medium containing 10% FBS overnight, followed by washing twice in serum-free medium. Cells were maintained overnight in serum-free medium and exposed to tempol (10 mM) or tempo (10 mM) for various times. […] The intensity of the dye uptake by cells was detected using FACStar plus Flow Cytometer (Becton Dickerson, Lincoln Park, N.J.), and data were analyzed using Reproman True Facts software (Seattle, Wash.). […]
In general terms: In flow cytometry, cells or beads pass a laser one at a time.

Consider `CC1(C)CCCC(C)(C)N1[O]` [tempo, 2,2,6,6-tetramethylpiperidine-N-oxyl], for which the apoptotic cell death in data set [1] (4 h) came to 3.97±0.33%. In data set [1] (8 h), this compound yielded an apoptotic cell death of 38.85±1.69%. In addition, the protein tyrosine phosphorylation entry in the data set with MDA-MB 231 cells is on record as “conspicuous increase”. Also, in the data set with PC-3 cells, the “apoptotic cells (A)” value is recorded as 2.57% and the “viable cells (V)” value turned out to be 10.76%.

With `CC1(C)CC(O)CC(C)(C)N1[O]` [tempol, 4-hydroxy-tempo, reference compound], the protein tyrosine phosphorylation entry in the data set with MDA-MB 231 cells is reported as “minimal protein tyrosine phosphorylation”. The “apoptotic cells (A)” value in the data set on PC-3 cells stood at 1.20%.

The values are drawn from US7074807B2, “Compositions and methods for inducing cell death” (Georgetown University, priority 1998, dated 2006).
